Counter-ions that a name gives are not always drawn.
Test system: aconitine arrhythmia in rats
Assay: Antiarrhythmic action on aconitine arrhythmia in rats
Type: in vivo, rat (strain: Sprague Dawley)
Details: Rattus norvegicus, iv, 1 h, intravenous administration (footnote 2), aconitine infused 60 minutes after substance, read-out: ED 50%: dose which causes a 50% extension in the period of aconitine infusion
Method: Moreover, the novel compounds were administered orally or intravenously to male rats (strain: Sprague Dawley, weight: 200-230 g) to determine the antiarrhythmic activity. 45 minutes later, the animals were anesthetized by intraperitoneal administration of 100 mg/kg of thiobutabarbital sodium. Aconitine served as the arrhythmogenic substance, and was infused intravenously at a dosage rate of 0.005 mg/kg/minute 60 minutes after administration of the substance. In untreated animals (n=52), arrhythmias appeared in the ECG after 2.74±0.07 minutes. These arrhythmias can be delayed by antiarrhythmic drugs, as a function of the dose.
The dose which extends the infusion period by 50% (ED 50%) was determined from the linear relationship between the logarithm of the dose (mg/kg) of the trial substance and the relative extension of the period of aconitine infusion (Δ%).
(§1) The known antiarrhythmic drug propafenone [2-(2-hydroxy-3-propylamino-propoxy)-3-phenyl-propiophenone hydrochloride]was used as the comparative substance.

Row | Molecule | ED50 [mg/kg]
1 | CCCNCC(O)COc1ccc(O)cc1C(=O)CCc1ccccc1 (stereo not drawn) [Example 71, 2-(2'-Hydroxy-3'-n-propylamino-propoxy)-5-hydroxy-β-phenyl-propiophenone hydrochloride] | 0.51

Same assay, conditions: Rattus norvegicus, po, 1 h, peroral administration, aconitine infused 60 minutes after substance, read-out: ED 50%: dose which causes a 50% extension in the period of aconitine infusion

Row | Molecule | ED50 [mg/kg]
2 | CCCNCC(O)COc1ccc(Cl)cc1C(=O)CCc1ccc(N(C)C)cc1 (stereo not drawn) [Example 62, 2-(2'-Hydroxy-3'-n-propylamino-propoxy)-5-chloro-β-(4-dimethylaminophenyl)-propiophenone hydrochloride] | 21.5
3 | CC(C)NCC(O)COc1ccccc1C(=O)CCc1ccc(N(C)C)cc1 (stereo not drawn) [Example 56, 2-(2'-Hydroxy-3'-isopropylamino-propoxy)-β-(4-dimethylaminophenyl)-propiophenone hydrochloride] | 3.4
4 | O=C(CCc1ccccc1)c1cc(Cl)ccc1OCC(O)CN1CCCCC1 (stereo not drawn) [Example 40, 2-(2'-Hydroxy-3'-piperidino-propoxy)-5-chloro-β-phenyl-propiophenone] | 46.4
5 | CCCNCC(O)COc1ccc(Cl)cc1C(=O)CCc1ccccc1 (stereo not drawn) [Example 37, 2-(2'-Hydroxy-3'-n-propylamino-propoxy)-5-chloro-β-phenyl-propiophenone hydrochloride] | 46.4
6 | COCC(C)NCC(O)COc1ccc(C)cc1C(=O)CCc1ccc(N(C)C)cc1 (stereo not drawn) [Example 69, 2-[2'-Hydroxy-3'-(3-methoxy-prop-2-ylamino)-propoxy]-5-methyl-β-(4-dimethylaminophenyl)-propiophenone hydrochloride] | 31.6
7 | COCC(C)NCC(O)COc1ccc(Cl)cc1C(=O)CCc1ccccc1 (stereo not drawn) [Example 38, 2-[2'-Hydroxy-3'-(3-methoxy-prop-2-ylamino)-propoxy]-5-chloro-β-phenyl-propiophenone hydrochloride] | 21.5
8 | CN(C)CCNCC(O)COc1ccccc1C(=O)CCc1ccccc1 (stereo not drawn) [Example 16, 2-[2'-Hydroxy-3'-(2-dimethylaminoethylamino)-propoxy]-β-phenyl-propiophenone bis-hydrochloride] | 29
9 | CCCNCC(O)COc1ccccc1C(=O)CCc1ccc(N(CC)CC)cc1 (stereo not drawn) [Example 61, 2-(2'-Hydroxy-3'-n-propylamino-propoxy)-β-(4-diethylaminophenyl)-propiophenone hydrochloride] | 1.9
10 | O=C(CCc1ccccc1)c1ccccc1OCC(O)CNC1CCCCC1 (stereo not drawn) [Example 4, 2-(2'-Hydroxy-3'-cyclohexylamino-propoxy)-β-phenylpropiophenone hydrochloride] | 46.4
11 | CCCNCC(O)COc1ccccc1C(=O)CCc1ccc(OC)c(OC)c1 (stereo not drawn) [Example 36, 2-(2'-Hydroxy-3'-n-propylamino-propoxy)-β-(3,4-dimethoxyphenyl)-propiophenone hydrochloride] | 6.92
12 | CCCNCC(O)COc1ccc(C)cc1C(=O)CCc1ccc(N(C)C)cc1 (stereo not drawn) [Example 63, 2-(2'-Hydroxy-3'-n-propylamino-propoxy)-5-methyl-β-(4-dimethylaminophenyl)-propiophenone hydrochloride] | 3.03
13 | Cc1ccc(OCC(O)CN2CCN(C)CC2)c(C(=O)CCc2ccc(N(C)C)cc2)c1 (stereo not drawn) [Example 68, 2-[2'-Hydroxy-3'-(4-methyl-piperazin-1-yl)-propoxy]-5-methyl-β-(4-dimethylaminophenyl)-propiophenone hydrochloride] | 46.4
14 | CC(C)N(CC(O)COc1ccc(Cl)cc1C(=O)CCc1ccc(N(C)C)cc1)C(C)C (stereo not drawn) [Example 66, 2-[2'-Hydroxy-3'-(N,N-diisopropylamino)-propoxy]-5-chloro-β-(4-dimethylaminophenyl)-propiophenone hydrochloride] | 21.5
15 | CC(C)(O)CCNCC(O)COc1ccccc1C(=O)CCc1ccccc1 (stereo not drawn) [Example 8, 2-[2'-Hydroxy-3'-(3-hydroxy-3-methyl-butylamino)-propoxy]-β-phenyl-propiophenone hydrochloride] | 21

Same assay, conditions: peroral administration, aconitine infused 60 minutes after substance

Row | Molecule | ED 50%: dose which causes a 50% extension in the period of aconitine infusion [mg/kg]
16 | 2-[2'-Hydroxy-3'-(2-hydroxyethylamino)-propoxy]-β-(dimethylaminophenyl)-propiophenone hydrogen oxalate [Example 59] | 21.5

Test system: isolated left atrium of male guineapigs
Assay: Antiarrhythmic action on the isolated guineapig atrium (drop in maximum rhythmicity)
Set-up: species or system guineapig (strain: Pirbright white)
Details: Cavia porcellus, Tyrode's solution pH 7.4, 32° C., read-out: Maximum rhythmicity (ED 50%): concentration which causes a 50% drop in the maximum rhythmicity
Method: The antiarrhythmic activity of the compounds according to the invention was determined on the isolated left atrium of male guineapigs (strain: Pirbright white, weight: 350 to 450 g).
Atria suspended in an organ bath (volume: 125 ml) with carbogen-saturated Tyrode's solution (pH 7.4, 32° C.) were pre-loaded with 1.0 g and subjected to square-wave pulses having a base rhythm of 1 Hz and twice the excitation threshold (rheobase: 0.2-1.4 V, chronaxia: 0.3-0.5 msec).
The frequency (Hz) up to which contraction follows each stimulus (maximum rhythmicity, MR) was determined, by automatically and continuously increasing the frequency, as a criterion of the antiarrhythmic activity. The concentration which causes a drop in the maximum rhythmicity of 50% (EC 50%) was calculated from the linear relationship between the logarithm of the concentration (mg/l) and the relative drop in the maximum rhythmicity (%).
as §1

Row | Molecule | EC50 [µg/mL]
17 | C#CC(C)NCC(O)COc1ccccc1C(=O)CCc1ccccc1 (stereo not drawn) [Example 6, 2-[2'-Hydroxy-3'-(1-butyn-3-ylamino)-propoxy]-β-phenyl-propiophenone hydrochloride] | 1.71
18 | C#CC(C)(C)NCC(O)COc1ccccc1C(=O)CCc1ccccc1 (stereo not drawn) [Example 7, 2-[2'-Hydroxy-3'-(3-methyl-1-butyn-3-ylamino)-propoxy]-β-phenyl-propiophenone hydrochloride] | 1.66
19 | CCCNCC(O)COc1ccccc1C(=O)CCc1ccccc1OC (stereo not drawn) [Example 29, 2-(2'-Hydroxy-3'-n-propylamino-propoxy)-β-(2-methoxyphenyl)-propiophenone hydrochloride] | 1.71
20 | CCCNCC(O)COc1ccccc1C(=O)CCc1ccccc1 (stereo not drawn) [Propafenone, 2-(2'-hydroxy-3'-n-propylamino-propoxy)-β-phenyl-propiophenone hydrochloride, reference compound] | 2.02
21 | CCCN(CCC)CC(O)COc1ccc(Cl)cc1C(=O)CCc1ccc(F)cc1 (stereo not drawn) [Example 47, 2-(2'-Hydroxy-3'-di-n-propylamino-propoxy)-5-chloro-β-(p-fluorophenyl)-propiophenone hydrochloride] | 1.45
22 | CCCN(CCC)CC(O)COc1ccc(C)cc1C(=O)CCc1ccc(Cl)cc1 (stereo not drawn) [Example 46, 2-(2'-Hydroxy-3'-di-n-propylamino-propoxy)-5-methyl-β-(4-chlorophenyl)-propiophenone hydrochloride] | 0.778
23 | CCCNCC(O)COc1ccc(C)cc1C(=O)CCc1ccc(OC)c(OC)c1 (stereo not drawn) [Example 48, 2-(2'-Hydroxy-3'-n-propylamino-propoxy)-5-methyl-β-(3,4-dimethoxyphenyl)-propiophenone hydrochloride] | 0.923
24 | CC(C)N(CC(O)COc1ccccc1C(=O)CCc1ccc(N(C)C)cc1)C(C)C (stereo not drawn) [Example 64, 2-[2'-Hydroxy-3'-(N,N-diisopropylamino)-propoxy]-β-(4-dimethylaminophenyl)-propiophenone hydrochloride] | 1.36
25 | O=C(CCc1ccccc1)c1ccccc1OCC(O)CN1CCC(c2ccccc2)C1 (stereo not drawn) [Example 22, 2-[2'-Hydroxy-3'-(3-phenyl-pyrrolidino)-propoxy]-β-phenyl-propiophenone hydrochloride] | 1.21
26 | COc1ccc(CCNCC(O)COc2ccccc2C(=O)CCc2ccccc2)cc1OC (stereo not drawn) [Example 14, 2-[2'-Hydroxy-3'-(2-(3,4-dimethoxyphenyl)-ethylamino)propoxy]-β-phenyl-propiophenone hydrochloride] | 2.17
27 | CC(CNCC(O)COc1ccccc1C(=O)CCc1ccccc1)c1ccccc1 (stereo not drawn) [Example 12, 2-[2'-Hydroxy-3'-(2-phenylpropylamino)-propoxy]-β-phenyl-propiophenone hydrochloride] | 1.25
28 | CN(C)CC(O)COc1ccccc1C(=O)CCc1ccccc1 (stereo not drawn) [Example 18, 2-[2'-Hydroxy-3'-(N,N-dimethylamino)-propoxy]-β-phenyl-propiophenone hydrochloride] | 1.3
29 | COc1ccc(CCN(C)CC(O)COc2ccccc2C(=O)CCc2ccccc2)cc1OC (stereo not drawn) [Example 15, 2-[2'-Hydroxy-3'-[N-methyl-N-(2-(3,4-dimethoxyphenyl)ethylamino)]-propoxy]-β-phenyl-propiophenone hydrochloride] | 0.728

Reference: patent US4540697A, “Aminopropanol derivatives of 2-hydroxy-β-phenyl-propiophenones, pharmaceutical compositions and use” (priority 1984, dated 1985)
